Results taken from patent US4265901A, “2-Oxybenzimidazoline compounds” (priority 1979, dated 1981).
Several values for one entry are separate records, joined by “and”; a condition that tells them apart may be missing. Equal values may be shown once. Where a name gives a salt, the structure may show the parent alone.

How the values were obtained:
Corn = assay: Pre-emergence herbicide test, corn; assay type: in vivo, Zea mays; settings: 8 lb/A
Experimental: (§1) In this evaluation, each compound to be tested was dissolved in a 1:1 mixture of acetone and ethanol containing a small amount of Toximul R and Toximul S (each a sulfonate/nonionic blend produced by Stepan Chemical Company, Northfield, Illinois). The solution was then diluted with deionized water to a composition of the following concentrations, by weight: Plant species used as indicators of herbicidal activity were planted in galvanized pans (flats) 31.5 cm. long, 21.5 cm. wide, and 8.0 cm. deep. The bottoms of the flats had holes to facilitate drainage. The soil used was a 1:1 ratio by volume of masonry sand and shredded top soil. Seeds of seven indicator species were planted in rows perpendicular to the long axis of the flat, one species per row, and covered with 0.5 to 1.0 cm. of sterilized soil. Indicator species and approximate number of seeds planted were as follows: Flats that were to receive preemergence treatments were planted one day prior to, or on the same day treatments were applied. Flats that were to receive postemergence treatments were planted 9 days prior to treatment and placed in a growth chamber until the day of treatment. In the growth chamber, flats received 12 to 18 hours of light per day and were subject to temperatures of 75° to 85° F. The formulated test compound was applied uniformly to the indicator species with a modified DeVilbiss atomizer using air pressure of 3 to 5 psi. Each flat received 12.5 ml. of spray solution which was equal to 200 gallons/acre total spray volume. Plants were maintained in a greenhouse after treatment. Herbicidal effects of chemicals were evaluated by two injury rating systems 18 days after preemergence applications and 14 days after postemergence applications. The degree of plant injury was based on a 1 to 5 scale and a single numerical rating was assigned to each test species as follows: […]

Pigweed [1] = assay: Pre-emergence herbicide test, pigweed; assay type: in vivo, Amaranthus retroflexus; settings: 8 lb/A
Experimental: as §1

Foxtail [2] = assay: Pre-emergence herbicide test, foxtail; assay type: in vivo, Setaria italica; settings: 8 lb/A
Experimental: as §1

Morning-glory [3] = assay: Pre-emergence herbicide test, morningglory; assay type: in vivo, Ipomoea purpurea; settings: 8 lb/A
Experimental: as §1

Zinnia [4] = assay: Pre-emergence herbicide test, zinnia; assay type: in vivo, Zinnia elegans; settings: 8 lb/A
Experimental: as §1

Large Crabgrass = assay: Post-emergence herbicide test, large crabgrass; assay type: in vivo, Digitaria sanguinalis
Experimental: as §1

Pigweed [5] = assay: Post-emergence herbicide test, pigweed; assay type: in vivo, Amaranthus retroflexus
Experimental: as §1

Foxtail [6] = assay: Post-emergence herbicide test, foxtail; assay type: in vivo, Setaria italica
Experimental: as §1

Velvetleaf = assay: Post-emergence herbicide test, velvetleaf; assay type: in vivo, Abutilon theophrasti
Experimental: as §1

Morning-glory [7] = assay: Post-emergence herbicide test, morningglory; assay type: in vivo, Ipomoea purpurea
Experimental: as §1

Zinnia [8] = assay: Post-emergence herbicide test, zinnia; assay type: in vivo, Zinnia elegans
Experimental: as §1

Southern armyworm = Southern armyworm test; assay type: in vivo, Spodoptera eridania; settings: 1000 ppm, 4 days; for Southern Armyworm Stom. (mortality rating): ranges in brackets are in %
Experimental: In this evaluation, each compound to be tested was dissolved in a 1:1 mixture of acetone and ethanol containing a small amount of Toximul R and Toximul S (each a sulfonate/nonionic blend produced by Stephan Chemical Company, Northfield, Ill.). The solution was then diluted with distilled water to a concentration of 1000 ppm of test compound.
This test was conducted with second to third instar larvae of Spodoptera eridania Cramer, Order Lepidoptera, Family Noctuidae. Uniform larvae (3rd instar) about 1 to 1.2 cm. in length were picked by hand from flats of Henderson lima beans and placed in plastic petri dishes.
The procedure otherwise was the same as used with the Mexican bean beetle reported above, except that 5 ml. of a formulation containing 100 ppm (0.01%) DDT [1,1,1-trichloro-2,2-bis(p-chlorophenyl)ethane] was used as the reference standard.

two-spotted spider mite = assay: Two-spotted spider mite test; assay type: in vivo, Tetranychus urticae; settings: 1000 ppm, 4 days; note: ranges in brackets are in %
Experimental: In this evaluation, each compound to be tested was dissolved in a 1:1 mixture of acetone and ethanol containing a small amount of Toximul R and Toximul S (each a sulfonate/nonionic blend produced by Stephan Chemical Company, Northfield, Ill.). The solution was then diluted with distilled water to a concentration of 1000 ppm of test compound. Lesser concentration formulations were made by diluting a portion of the 1000 ppm solution with distilled water containing 225 mg. of Toximul R and 125 mg. of Toximul S per liter.
This test was conducted with nymphs and adults of Tetranychus urticae (Koch), Order Acarina, Family Tetranychidae.
This test was run using blue hubbard squash plants which were grown in vermiculite (insulation grade No. 1) in 5 oz. plastic Dixie cups. One cotyledon is removed from each plant to remain in the cups. On retests two plants were left in each cup and on regular initial tests one plant was left in each cup. Each cotyledon is infested by placing a mite infested trifoliate bean leaf on if. Infected plants in cups were held for one day, then sprayed to wetting with formulations containing 1000 ppm of the test compound, using the DeVilbiss atomizer with 5-6 psi air pressure. Retests were run at 100 ppm. Tests were read four days after treatment. Two unsprayed but infested plants were held as a control. Two infested plants were sprayed with a formulation containing 750 ppm of galecron [N'-(4-chloro-o-tolyl)-N,N-dimethylformamidine monohydrochloride] as a reference standard.

Q: With `O=[N+]([O-])c1cc(Cl)cc2c1NC(O)(C(F)F)N2` (centres unmarked) [Example 5, 2-Hydroxy-2-(Difluoromethyl)-4-Nitro-6-Chlorobenzimidazoline, Calcium Salt] as the molecule, how does the plant injury rating (Corn) read?
A: 1 (no injury)

Q: And the plant injury rating (Pigweed [1])?
A: 2S

Q: What about the plant injury rating (Foxtail [2]) of the same molecule?
A: 3R

Q: And the plant injury rating (Morning-glory [3])?
A: 3RS

Q: What about the plant injury rating (Zinnia [4]) of the same molecule?
A: 4R

Q: And the plant injury rating (Large Crabgrass; 1 lb/A)?
A: 3BS

Q: And the plant injury rating (Large Crabgrass; 2 lb/A)?
A: 3BS

Q: What about the plant injury rating (Large Crabgrass; 4 lb/A) of the same molecule?
A: 4BS

Q: What about the plant injury rating (Large Crabgrass; 8 lb/A) of the same molecule?
A: 4BS

Q: And the plant injury rating (Pigweed [5]; 1 lb/A)?
A: 2S

Q: What about the plant injury rating (Pigweed [5]; 2 lb/A) of the same molecule?
A: 3BS

Q: What about the plant injury rating (Pigweed [5]; 4 lb/A) of the same molecule?
A: 3BS

Q: What about the plant injury rating (Pigweed [5]; 8 lb/A) of the same molecule?
A: 4BS

Q: And the plant injury rating (Foxtail [6]; 1 lb/A)?
A: 4BS

Q: And the plant injury rating (Foxtail [6]; 2 lb/A)?
A: 4BS

Q: And the plant injury rating (Foxtail [6]; 4 lb/A)?
A: 3BS

Q: And the plant injury rating (Foxtail [6]; 8 lb/A)?
A: 5D

Q: And the plant injury rating (Velvetleaf; 1 lb/A)?
A: 3BS

Q: And the plant injury rating (Velvetleaf; 2 lb/A)?
A: 3BS

Q: And the plant injury rating (Velvetleaf; 4 lb/A)?
A: 4BS

Q: And the plant injury rating (Velvetleaf; 8 lb/A)?
A: 5D

Q: And the plant injury rating (Morning-glory [7]; 1 lb/A)?
A: 2BS

Q: What about the plant injury rating (Morning-glory [7]; 2 lb/A) of the same molecule?
A: 2BS

Q: And the plant injury rating (Morning-glory [7]; 4 lb/A)?
A: 3BS

Q: What about the plant injury rating (Morning-glory [7]; 8 lb/A) of the same molecule?
A: 4BS

Q: What about the plant injury rating (Zinnia [8]; 1 lb/A) of the same molecule?
A: 3BS

Q: What about the plant injury rating (Zinnia [8]; 2 lb/A) of the same molecule?
A: 3BS

Q: What about the plant injury rating (Zinnia [8]; 4 lb/A) of the same molecule?
A: 4BS

Q: What about the plant injury rating (Zinnia [8]; 8 lb/A) of the same molecule?
A: 5D

Q: What about the “Southern Armyworm Feed. (feeding rating)” value (Southern armyworm) of the same molecule?
A: 1 (1-50% of the leaves eaten)

Q: And the “Southern Armyworm Stom. (mortality rating)” value (Southern armyworm; Calcium Salt)?
A: 3 (100) and 2 (51-99)

Q: What about the “2-Sp. Spider Mite Cont. (mortality rating)” value (two-spotted spider mite) of the same molecule?
A: 3 (100)
